Source: a melting point compilation (Tetko et al.)

`Cc1ccc(CCc2ccc(C)cc2)cc1` showed a melting point of 85 °C.
In the case of `CC(O)CCO` (centres undefined), the melting point is reported as -54 °C.
Work on `CCOC(=O)C=Cc1cc(C=CC(=O)OCC)c([N+](=O)[O-])cc1[N+](=O)[O-]` yielded a melting point of 116 °C.
For `CCOc1n[nH]c(=O)c(Br)c1Br`, the melting point was 206 °C.
In the case of `CC(C)CCCC(C)O` (centres undefined), the melting point is reported as -105 °C.
Work on `C1=NN(c2ccccc2)CC1` yielded a melting point of 52 °C.
Compound `Cc1n[nH]c(C)c1CCBr` has a melting point of 118 to 120 °C.
For `CC(C=CC=C(C)C=CC1=C(C)CC(O)CC1(C)C)=CC=CC=C(C)C=CC=C(C)C1C=C2C(C)(C)CC(O)CC2(C)O1` (centres undefined), the melting point was 184 °C.
Work on `COc1ccc(NC(=O)C(C(F)(F)F)C(F)(F)F)cc1` yielded a melting point of 185 to 187 °C.
`COC(=O)c1ccc(Oc2cccnc2)o1` gave a melting point of 78 to 79 °C.
Work on `Nc1cc(C(F)(F)F)cc(Cl)c1N` yielded a melting point of 42 to 43 °C.
Work on `CCCSP(=S)(OCC)Oc1ccc(SC)cc1` (centres undefined) yielded a melting point of -15 °C.
In the case of `COc1ccc(CNc2ccccn2)cc1`, the melting point is reported as 121 to 126 °C.
`FC(F)(F)C(F)(F)C(F)(F)C(F)(F)C(F)(F)C(F)(F)C(F)(F)C(F)(F)C(F)(F)C(F)(F)C(F)(F)C(F)(F)I` gave a melting point of 99 to 101 °C.
With `N#Cc1ccnc(N2CCCC2)c1` the melting point was 79 to 80 °C.
For `CC(C)(C)OC(=O)NC1(C(=O)O)CCc2ccccc21` (racemic), the melting point was 156 to 159 °C.
`Clc1ccc(/C=C(\Oc2ccc(Cl)cc2Cl)c2nc3ccccc3s2)cc1` gave a melting point of 156 °C.
With `CCCc1ccc(-c2ccccc2)cc1` the melting point was 15 to 17 °C.
In the case of `O=C1CN(N=Cc2ccc(-c3ccc([N+](=O)[O-])cc3)o2)C(=O)N1`, the melting point is reported as 280 °C.
`O=S1(=O)CCc2ccccc2CC1` showed a melting point of 153 to 155 °C.
Work on `COc1ccc(C2CC(c3ccc4ccccc4c3)=NN2C(N)=O)cc1` (centres undefined) yielded a melting point of 173 to 175 °C.
For `O=C(O)COC(=O)c1cc(Oc2ccc(C(F)F)cc2Cl)ccc1[N+](=O)[O-]`, the melting point was 65 °C.
In the case of `OCC(F)(F)C(F)(F)C(F)(F)C(F)(F)C(F)(F)C(F)(F)C(F)(F)F`, the melting point is reported as 43 to 47 °C.
Work on `COC(=O)c1cccc(Cl)c1` yielded a melting point of 21 °C.
In the case of `NC(=O)c1nccnc1C(N)=O`, the melting point is reported as 268 °C.
Compound `COC(=O)c1[nH]c2ccccc2c1C(=O)OC` has a melting point of 112 to 115 °C.
In the case of `CON=C(C(=O)OC)c1ccccc1COc1ccccc1C`, the melting point is reported as 102 °C.
In the case of `O=C(O)[C@@H]1CCCC[C@H]1C(=O)O` (relative stereo), the melting point is reported as 220 °C.
Work on `Cc1ccc(C(=O)c2ccccc2N)cc1` yielded a melting point of 91 to 94 °C.
For `N#CCc1nc2ccccc2[nH]1`, the melting point was 210 to 215 °C.
In the case of `C=C(C)CCC=C(C)C`, the melting point is reported as -70 °C.
`O=C(OC1CCCCC1)C(=O)OC1CCCCC1` showed a melting point of 43.5 °C.
`O=C(O)c1cc2sccc2s1` gave a melting point of 222 °C.
`COS(=O)(=O)c1cc([N+](=O)[O-])ccc1C#Cc1ccc([N+](=O)[O-])cc1S(=O)(=O)OC` gave a melting point of 228 °C.
Compound `CCC1Oc2ccccc2C(=O)NC1=O` (centres undefined) has a melting point of 162 to 164 °C.
`O=C(O)Cn1cc(Cl)c(=O)c(Cl)c1` gave a melting point of 259 to 263 °C.
With `CCC1C(C=NC(C)(C)C)=NC(C)(C)N1O` (centres undefined) the melting point was 103 to 105 °C.
In the case of `c1ccc(CNc2ccccc2-n2c(-c3ccccc3)nc3ccccc32)cc1`, the melting point is reported as 160 °C.
For `O=Cc1ccc2occc2c1`, the melting point was 37 to 38 °C.
For `O=C(O)CCC(=O)c1ccc(Br)cc1`, the melting point was 146 to 147 °C.
Compound `COC(=O)c1cc(OC)c(O)c(OC)c1` has a melting point of 106 °C.
For `CC(=O)CC(=O)CC(C)=O`, the melting point was 49 °C.
Work on `C(=C\P(c1ccccc1)c1ccccc1)/P(c1ccccc1)c1ccccc1` yielded a melting point of 123 to 128 °C.
In the case of `O=C(O)C1CC1C(=O)Nc1ccc(Cl)cc1Cl` (centres undefined), the melting point is reported as 196 °C.
`CC12CCC(/C(=C/N(Cl)c3ccccc3)C1=O)C2(C)C` (centres undefined) showed a melting point of 102 to 103 °C.
Compound `ON=CC1=C(/C=C/c2ccccc2)CCC1` has a melting point of 162 to 163 °C.
With `NCCCNCCNCCCN` the melting point was -1.5 °C.
In the case of `Clc1ccc(CSSCc2ccc(Cl)cc2)cc1`, the melting point is reported as 59 to 61 °C.
`Cc1cc(Br)c2c(c1N)C(=O)c1ccccc1C2=O` showed a melting point of 245 to 252 °C.
Work on `O=C1CN=C(c2ccccc2)c2cc(Cl)ccc2N1CC(F)(F)F` yielded a melting point of 164 °C.
`CC(C)(C)OC(=O)N1CCN(Cc2cccc(C=O)c2)CC1` showed a melting point of 67 to 68 °C.
For `CC(=O)CCc1cc2c(cc1[N+](=O)[O-])CCC(C)N2C(=O)c1ccc([N+](=O)[O-])cc1` (centres undefined), the melting point was 173 °C.
`CCCCC(=O)c1ccc(F)cc1` showed a melting point of 27 °C.
`CCCCCCCCCCOc1ccc(/C=N/c2ccc(/C=C/C(=O)OCC)cc2)cc1` showed a melting point of 114 to 115 °C.
Compound `COc1cc(C=C[N+](=O)[O-])ccc1OCc1ccccc1` has a melting point of 123 °C.
Compound `COCC(CCC(=O)OC)N1CC=CC1` (centres undefined) has a melting point of 144 to 146 °C.
`O=C1CCC(c2ccc(N=Cc3ccccc3[N+](=O)[O-])cc2)=NN1` showed a melting point of 234 to 236 °C.
Work on `NC(=S)c1ccc(C(F)(F)F)cc1` yielded a melting point of 136 to 137 °C.
With `Cc1cc(C)c(-c2cc(C)[nH]n2)c(C)c1` the melting point was 128 to 130 °C.
`Cc1cc(C)cc(P(c2cc(C)cc(C)c2)c2cc(C)cc(C)c2)c1` showed a melting point of 160 to 162 °C.
For `O=C(Nc1ccccc1[N+](=O)[O-])C(C(F)(F)F)C(F)(F)F`, the melting point was 156 °C.
With `ClC(Cl)C(Cl)C(Cl)Cl` the melting point was -10 °C.
With `CC(C)(C)CCl` the melting point was -20 °C.
Compound `Cn1nc(C(=O)Cl)cc1-c1ccccc1` has a melting point of 80 to 82 °C.
In the case of `CCCCCCCCCCCCSC(C(=O)Nc1cc(C)c(O)c(C)c1C)c1ccccc1` (centres undefined), the melting point is reported as 130 °C.
Compound `COc1c(C(C)(C)C)cc([N+](=O)[O-])c(C)c1[N+](=O)[O-]` has a melting point of 85 °C.
`FC(F)(Cl)CCl` showed a melting point of -101 °C.
Work on `CC1(C)O[C@@H](CP(c2ccccc2)c2ccccc2)[C@@H](CP(c2ccccc2)c2ccccc2)O1` yielded a melting point of 86 to 88 °C.
Work on `Cc1cc(O)c(C(C)(C)C)cc1C(C)(C)C` yielded a melting point of 62.1 °C.
For `O=C(O)C1CCNCC1`, the melting point was 336 °C.
`Oc1ccc(Br)cc1C=NCCN=Cc1cc(Br)ccc1O` showed a melting point of 191 to 196 °C.
In the case of `O=S(=O)(CCCl)c1ccc(F)cc1`, the melting point is reported as 69 °C.
`Cc1c(CO)cnn1-c1ccccc1` gave a melting point of 88 to 89 °C.
In the case of `CCOC(=O)Cc1n[nH]c2ccc(Cl)cc12`, the melting point is reported as 77 °C.
For `Cc1nc(C(F)(F)F)c(C(=O)Nc2c(Br)cc(OC(F)(F)F)cc2Br)s1`, the melting point was 178 °C.
In the case of `COc1cc(CCC(=O)O)ccc1O`, the melting point is reported as 90 °C.
In the case of `COc1ccc(-c2nnc3n2NC(c2ccc(Cl)cc2)S3)cc1` (centres undefined), the melting point is reported as 160 °C.
Compound `Cc1ccc2cc(F)ccc2c1` has a melting point of 73 to 74 °C.
Work on `Cn1c(/C(C#N)=N/Nc2cccc(O)c2)nc2ccccc21` yielded a melting point of 285 °C.
Compound `O=c1[nH]c2ccccc2n1C1CCNCC1` has a melting point of 183 to 185 °C.
`NCc1ccc(-n2cccn2)cc1` gave a melting point of 75 to 78 °C.
Compound `Cn1nnc2cc(C(=O)O)ccc21` has a melting point of 250 °C.
`CCOC(=O)c1ccc(Oc2ccc(C)nn2)cc1` gave a melting point of 70 to 73 °C.
Work on `NC(=S)Nc1ccc(F)c(F)c1F` yielded a melting point of 162 to 165 °C.
With `Brc1ccc2cccnc2c1` the melting point was 34 °C.
With `CC(Cc1ccccc1)(C(=O)O)C(=O)O` the melting point was 132 °C.
For `CCC(C)S` (centres undefined), the melting point was -165 °C.
`CN1C2CC(=O)CC1C(O)C2` (centres undefined) gave a melting point of 120 to 123 °C.
`C=C1N(C(C)=O)c2ccccc2C1(C)C(=O)OC` (centres undefined) gave a melting point of 59 to 61 °C.
In the case of `Cc1cnc(CO)c(C)c1[N+](=O)[O-]`, the melting point is reported as 67 °C.
`O=C1/C(=C/c2ccc([N+](=O)[O-])cc2)SC(=S)N1CN1CCCCC1` showed a melting point of 160 °C.
For `c1csc(P(c2cccs2)c2cccs2)c1`, the melting point was 29 to 30 °C.
Work on `CCCCCCCCCCC#N` yielded a melting point of -6 °C.
Work on `CC(=O)c1ccn(S(=O)(=O)c2ccccc2)c1` yielded a melting point of 89 to 92 °C.
Work on `CC(C)(CCC(=O)O)C(=O)O` yielded a melting point of 84 °C.
Work on `S=C(Nc1cccc2ccccc12)Nc1cccc2ccccc12` yielded a melting point of 208 °C.
`O=S(=O)(O)c1cccc2cnccc12` showed a melting point of 300 °C.
Work on `N#Cc1ccc(S(=O)(=O)C(F)(F)F)cc1` yielded a melting point of 90 °C.
Work on `Clc1cc(Cl)c2ccccc2n1` yielded a melting point of 67.5 °C.
`Cc1onc(-c2c(Cl)cccc2Cl)c1C(=O)O` gave a melting point of 223 °C.
`O=C(Cl)c1ccccc1COc1ccccc1` showed a melting point of 49 to 51 °C.
With `CC(C)(C)OC(=O)N1CC(C#N)C1` the melting point was 70 °C.
In the case of `CC(C)(C)OC(=O)N1CCN(c2ccccc2N)CC1`, the melting point is reported as 120 to 122 °C.
`CC1CCC(C(C)C)C(OCC(=O)O)C1` (centres undefined) showed a melting point of 54 °C.
For `CCCCCCCCN(C)C`, the melting point was -57 °C.
With `c1ccc(P(C2CCCCC2)C2CCCCC2)cc1` the melting point was 59.5 °C.
For `CCc1cccc([N+](=O)[O-])c1`, the melting point was -37.9 °C.
With `C#CC1(O)CCC2(C)C(CCC3C2CCC2(C)C(OC(C)=O)CCC32)C1` (centres undefined) the melting point was 196 °C.
Work on `O=C1C(CCl)(CCl)CCC1(CCl)CCl` yielded a melting point of 72 °C.
Work on `O=C1CC(=O)CC(c2ccco2)C1` yielded a melting point of 146 to 149 °C.
In the case of `Cn1ccc2c1CCCC2=O`, the melting point is reported as 85 °C.
For `ICc1ccccc1`, the melting point was 24.5 °C.
In the case of `CC1CCC2C(C)(C)C3CC12CCC3(C)O` (centres undefined), the melting point is reported as 86 °C.
`c1ccc(N=Nc2ccc(N=Nc3ccc(/N=N/c4ccc(N=Nc5ccccc5)cc4)cc3)cc2)cc1` showed a melting point of 275 °C.
For `CC(Oc1ccc(Oc2cnc3cc(Cl)ccc3n2)cc1)C(=O)OCC1CCCO1` (centres undefined), the melting point was 64 °C.
In the case of `CCNC(=O)NC(=O)C(C#N)=NOC`, the melting point is reported as 161 °C.
Compound `Cc1nc(-c2cc(C(=O)O)no2)cs1` has a melting point of 166 to 167 °C.
In the case of `N#Cc1cnccc1/C=C/c1ccccc1`, the melting point is reported as 128 to 130 °C.
Compound `OCc1ccc(-c2cccs2)s1` has a melting point of 51 to 54 °C.
Work on `CCOOCC` yielded a melting point of -70 °C.
For `N#CCC(=O)c1cccs1`, the melting point was 112 °C.
With `O=C(O)Cn1ccnc1` the melting point was 258 to 260 °C.
Compound `COC(=O)C1(S(=O)(=O)c2ccc(C)cc2)CC1` has a melting point of 97.2 °C.
In the case of `CCC(=O)c1ccc(C(F)(F)F)c(F)c1`, the melting point is reported as 37 °C.
Compound `COc1ccc(C=O)cc1F` has a melting point of 35 °C.
Compound `O=[N+]([O-])c1ccc(/C=N/n2c(S)nnc2C(F)(F)F)cc1` has a melting point of 193 °C.
In the case of `Cc1cccc(Oc2ncccc2[N+](=O)[O-])c1C`, the melting point is reported as 210 to 213 °C.
`CC(C)(C)C(=O)CC(=O)C(F)(F)C(F)(F)C(F)(F)F` showed a melting point of 38 °C.
In the case of `N#Cc1cccc(N2CCCC2)n1`, the melting point is reported as 73 to 74 °C.
